Results as given in paper PMC5598150 (Toxicology Reports, 2015).

Assays:
[1] = tested on: human neuroblastoma SK-N-SH cells; test: MTT assay of cell viability in SK-N-SH neuroblastoma cells; assay type: cell-based
[2] = tested on: primary rat cortical neurons; test: Live and Dead cell staining of primary neuronal cultures; assay type: cell-based; conditions: 24 h
[3] = partition coefficient between octanol and water; cited from earlier work
[4] = tested on: rat; conditions: ref Hazardous Substances Data Bank (HSDB); cited from earlier work
[5] = tested on: primary cultured cells; conditions: cited from earlier work

| SMILES | IC50 ([1]; Homo sapiens, SK-N-SH, 24 h) | Survival of primary cultured neurons ([2]; 1 mM) | log Pow [3] | Survival of primary cultured neurons ([2]; 0.5 mM) | LD50 rat (intraperitoneal) [4] | IC50 ([1]; SK-N-SH cells, MTT assay, 24 h exposure) | Concentration causing the death of all primary cultured cells [5] |
| --- | --- | --- | --- | --- | --- | --- | --- |
| OCCc1ccccc1 [Phenethyl alcohol] | 2390 µM | almost all of the cells in culture dishes survived | – | – | – | – | – |
| CC/C=C\CCO [cis-3-Hexen-1-ol] | 2300 µM | almost all of the cells in culture dishes died | – | – | – | – | – |
| CCCCCCCCC=O [Nonanal] | 8.31 µM | – | 3.27 | almost all of the primary cultured neurons died | – | – | – |
| CCCO [n-Propyl alcohol] | – | almost all of the cells in culture dishes survived | – | – | 164 mg/kg | > 5000 µM | – |
| CCCCC(CC)CO (centres unmarked) [2-Ethyl-1-hexanol] | 15.1 µM | – | 2.73 | almost all of the primary cultured neurons died | 500 mg/kg | – | – |
| Cc1ccccc1 [Toluene, reference compound] | 850 µM | – | – | – | 1332 mg/kg | – | 2000 µM |
| CCCCCCCC=O [n-Octanal] | 37.2 µM | – | 2.78 | almost all of the primary cultured neurons died | – | – | – |
| C=CC(C)(O)CCC=C(C)C (centres unmarked) [Linalool] | 1330 µM | almost all of the cells in culture dishes died | – | – | 307 mg/kg | – | – |
